Data published in patent publication US20140097078A1, “DISTILLATION DEVICE AND METHOD” (GE HEALTHCARE LIMITED, priority 2011, published 2014).
Read-outs that look alike come from different tables or passages of the source.

What was measured:
[1] = Radiolysis / stability of [18F]FET-βAG-TOCA: percentage of parent compound over time; format: physicochemical; details: for Percentage of parent compound at time: T = 0 / Percentage of parent compound at time: T = 120 m / Percentage of parent compound at time: T = 240 m: ~10 ml in 3-6% EtOH/PBS
Description: The use of higher levels of fluorine-18 (0.5-1 Curie) was also investigated. […] Although radiolysis occurred during isolation, once the product had been fully formulated (6% EtOH/PBS (10 mL)) it appeared to be stable up to 6 h. During this experiment, the EOS yield after aseptic filtration was 13%. The starting fluorine-18 was then reduced to see enough material could be isolated for a clinical dose, whilst at the same time reducing radiolysis.
Additional experiments attempted to add ascorbic acid to the existing HPLC eluent (0.5% w/v), add a sodium ascorbate solution to the HPLC fraction collection vial (5 mg/mL (5 mL)) and elute the tC18 cartridge with a sodium ascorbate/EtOH solution (5 mg/mL/1% EtOH). Unfortunately, due to addition of ascorbic acid to the HPLC eluent, the purification became inefficient, showing very little elution of the stable reagents. […] The isolated yield was also unaffected and gave EOS of 14%. To avoid this problem, ethanol was investigated as a replacement for the ascorbic acid. After some optimisation, a suitable solvent system was found (25% MeCN (0.1% HCl), 75% H2O (0.1% HCl)+0.8% w/v EtOH) which could be used to purify the material at the same time as reducing radiolysis (97% parent T=0 min (n=1)) (Entry 5, Table 2).

[2] = Entry 1, starting activity 1 Curie
[3] = Entry 2, starting activity 600 mCi
[4] = Entry 3, starting activity 500 mCi
[5] = Entry 4, starting activity 500 mCi
[6] = Entry 5, starting activity 500 mCi, EtOH-containing HPLC eluent

[^18F]FET-βAG-TOCA
time for which stable once fully formulated ([1]; 1 Curie run, formulated in 6% EtOH/PBS (10 mL)): ≥ 6 h | Percentage of parent compound at time: T = 0 [1, 2]: 60% | Percentage of parent compound at time: T = 120 m [1, 2]: 60% | Percentage of parent compound at time: T = 240 m [1, 2]: 60% | Percentage of parent compound at time: T = 0 [1, 3]: 91% | Percentage of parent compound at time: T = 120 m [1, 3]: 91% | Percentage of parent compound at time: T = 240 m [1, 3]: 91% | Percentage of parent compound at time: T = 0 [1, 4]: 96% | Percentage of parent compound at time: T = 120 m [1, 4]: 96% | Percentage of parent compound at time: T = 240 m [1, 4]: 96% | Percentage of parent compound at time: T = 0 [1, 5]: 97% | Percentage of parent compound at time: T = 120 m [1, 5]: 97% | Percentage of parent compound at time: T = 240 m [1, 5]: 97% | Percentage of parent compound at time: T = 0 [1, 6]: 97% | Percentage of parent compound at time: T = 240 m [1, 6]: 97% | parent at T=0 min ([1]; HPLC solvent 25% MeCN (0.1% HCl), 75% H2O (0.1% HCl)+0.8% w/v EtOH, n=1, Entry 5, Table 2): 97% | parent at T=0 min ([1]; ascorbic acid in HPLC eluent (0.5% w/v), sodium ascorbate in collection vial and tC18 eluent): 97% | intact parent ([1]; starting with 0.5 Curies of fluorine-18): 91% | parent at T=0 ([1]; starting with 1 Curie of fluorine-18, radiolysis during HPLC purification and tC18 formulation): 62%

βAG-TOCA
time for which stable (in the presence of BPDS): ≤ 20 min | time for which stable (in the presence of CuSO4): > 240 min | time for which stable (in the presence of Na-ascorbate): ≤ 20 min
